# According to US20120231497A1, “SELECTIVE ENZYMATIC […] C-TERMINAL TERT-BUTYL ESTERS OF PEPTIDES” (N.V. Organon, priority 2006, published 2012):
# Marks after values point to notes of the source that are not given here. Square brackets hold non-standard residues; d marks the D form. * marks the point of attachment. His(Trt) = N[C@@H](Cc1cn(C(c2ccccc2)(c2ccccc2)c2ccccc2)cn1)C(=O)O; Pbf = Cc1c(C)c(S(=O)(=O)*)c(C)c2c1OC(C)(C)C2; code Z = not defined here; Cbz = O=C(OCc1ccccc1)*; Boc = CC(C)(C)OC(=O)*; OtBu = CC(C)(C)O*; tBu = CC(C)(C)*
# How the values were obtained:
# Assay type in all cases: biochemical
# Alcalase CLEA [1] = molecular target: T1, Alcalase CLEA (Bacillus licheniformis, UniProt P00780); test: Hydrolysis of tetrapeptide tert-butyl ester by Alcalase CLEA in NMP/buffer (Example 2); settings: 0.05 mmol, 5 mg Alcalase CLEA, NMP/phosphate buffer pH 8 1:1, 40° C., 17 h
# T1 construct: purchased CLEA Technologies B. V., Delft, The Netherlands
# T1 sequence (P00780 106-379): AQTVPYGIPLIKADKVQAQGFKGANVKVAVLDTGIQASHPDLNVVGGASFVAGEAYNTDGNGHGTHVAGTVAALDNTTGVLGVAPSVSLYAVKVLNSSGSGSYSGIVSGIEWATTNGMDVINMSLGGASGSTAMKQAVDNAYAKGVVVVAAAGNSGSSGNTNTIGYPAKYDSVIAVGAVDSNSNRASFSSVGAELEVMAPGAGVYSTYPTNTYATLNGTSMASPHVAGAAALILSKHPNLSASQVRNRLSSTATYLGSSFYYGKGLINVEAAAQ
# Method: 0.05 mmol of Boc-Gly-Phe-Phe-Leu-OBu^t was dissolved in a thermostated mixture of 2.5 ml NMP and 2.5 ml phosphate buffer 0.1M pH 8. To this solution 5 mg of Alcalase CLEA were added. The reaction mixture was incubated at 40° C. for a total of 17 hours. Substrate conversion is determined by HPLC. The reaction resulted after 17 h in >95% yield of Boc-Gly-Phe-Phe-Leu-OH.
# Alcalase CLEA [2] = molecular target: T1, Alcalase CLEA; test: Identification of peptide substrates susceptible to endopeptidic cleavage (Example 5)
# Method: General procedure Alcalase CLEA:
# 0.1 mmol of each of the tetrapeptides (or tetrapeptide mixtures) were dissolved in 2.5 ml DMF. To this solution 5 mg of enzyme were added along with 2.5 ml phosphate buffer 0.1 M pH 7 and were added to the previous solution. The reaction mixture was incubated at 40° C. Reaction mixtures were analysed after 2 hours and 6 hours by HPLC. In case the reaction had not reached completion additional portions of enzyme [5 mg each] were added at the end of six hours and overnight (approx. 24 hours of reaction). The last aliquot was analysed by LC/MS to verify the presence of the desired compound and of any impurities being Z-Val-Val-X-OH and/or H-X-Leu-OH.
# [3] = molecular target: T2, subtilisin A (S. Carlsberg) (Bacillus licheniformis, UniProt P00780); test: Hydrolysis of C-terminal tert-butyl esters by free subtilisin A (Example 1); settings: 0.1 mmol peptide, 5 mg enzyme, DMF/phosphate buffer 0.1 M 1:1, 40° C., 2 hours, HPLC
# T2 construct: purchased Sigma Aldrich
# T2 sequence (P00780 106-379): T1 sequence (P00780 106-379)
# Method: (§1) General Procedure Subtilisin A:
# 0.1 mmol of each of the peptides was dissolved in a thermostated mixture of 2.5 ml DMF and 2.5 ml phosphate buffer 0.1 M pH 7.5 mg of enzyme were added to the peptide solution. The reaction mixture was incubated at 40° C. for a total of two hours. The reaction mixtures were analysed after 2 hours using HPLC.
# Subtilisin A [4] = molecular target: T3, Subtilisin A (Bacillus licheniformis, UniProt P00780); test: Deprotection of model dipeptides by Subtilisin A (Example 3); settings: 0.1 mmol, 5 mg enzyme, 50 v/v % DMF/phosphate buffer pH 7, 40° C., 6 hours
# T3 construct: purchased Novozymes
# T3 sequence (P00780 106-379): T1 sequence (P00780 106-379)
# Method: as §1
# 0.1 mmol of each of the peptides was dissolved in 2.5 ml DMF. 5 mg of enzyme were dissolved in 2.5 ml phosphate buffer 0.1 M pH 7 and were added to the peptide solution. The reaction mixture was incubated at 40° C. for a total of six hours. The reaction mixtures were analysed after 6 hours using HPLC and LC/MS.
# Alcalase CLEA [5] = molecular target: T1, Alcalase CLEA; test: Deprotection of model dipeptides by Alcalase CLEA (Example 3); settings: 0.1 mmol, 5 mg enzyme, 50 v/v % DMF/phosphate buffer pH 7, 40° C., 6 hours
# Source text: A person skilled in the art can easily identify suitable substrates, for instance by performing a simple test hydrolysis of a selected peptide comprising a C-terminal tert-butyl ester functionality under suitable conditions as described herein before and following conversion e.g. by HPLC techniques. It has been found by hydrolysis of model dipeptides of the general structure Z-Val-X-OBu^t in the presence of Alcalase CLEA and 50% v/v of DMF (see for details Example 3) that the reactivity for these model substrates comprising a C-terminal tert-butyl ester functionality can be divided into four categories:
# General Procedure Alcalase CLEA:
# 0.1 mmol of each of the peptides was dissolved in 2.5 ml DMF. To this solution 5 mg of enzyme were added along with 2.5 ml phosphate buffer 0.1M pH 7. The reaction mixture was incubated at 40° C. for a total of six hours. The reaction mixtures were analysed after 6 hours using HPLC and LC/MS.
# Subtilisin A [6] = molecular target: T3, Subtilisin A; test: Optimization of the amount of enzyme (Example 4); settings: 2 h
# Method: 0.1 mmol of each of the peptides was dissolved in 2.5 ml IDMF. Subtilisin A was dissolved in 2.5 ml phosphate buffer 0.1 M pH 7 and added to the peptide solution. The reaction mixture was incubated at 40° C. The reaction mixtures were sampled at the indicated reaction times and analysed by HPLC. When needed extra portions of enzyme were added at 2-hour intervals.
# Alcalase CLEA [7] = molecular target: T1, Alcalase CLEA; test: Scaling up of the procedure (Example 6); settings: 1 mmol, 3x25 mg Alcalase CLEA, 50% DMF, pH 7, 40° C., 6 days
# Method: To a stirred solution of 606 mg (1 mmol) Z-Val-Trp-Leu-OBu^t in 25 ml DMF 25 mg of Alcalase CLEA were added along with 25 ml of phosphate buffer 0.1 M pH 7. The mixture was stirred at 40° C. The reaction progress was monitored by HPLC. Extra portions of enzyme (25 mg of Alcalase CLEA each) were added after 24 hours and after 48 hours. After 6 days the reaction was stopped. The reaction mixture was acidified to pH 2 and DMF was evaporated. The product was extracted with ethyl acetate. The organic layer was dried using sodium sulphate, concentrated in vacuo and the final product precipitated from heptane.
# [8] = 48 h, extra 5 mg enzyme portions after 6 h and approx. 24 h
# [9] = 24 h, extra 5 mg enzyme after 6 h
# [10] = 2 h, 5 mg Alcalase CLEA, 50% DMF, pH 7, 40° C.
substance,measurement,setting,value
Boc-Gly-Phe-Phe-Leu-OBu^t (Boc-GFFL-OtBu; SMILES CC(C)C[C@H](NC(=O)[C@H](Cc1ccccc1)NC(=O)[C@H](Cc1ccccc1)NC(=O)CNC(=O)OC(C)(C)C)C(=O)OC(C)(C)C),yield of Boc-Gly-Phe-Phe-Leu-OH (substrate conversion by HPLC),Alcalase CLEA [1],> 95%
Cbz-VVE(OtBu)L-OtBu,Ratio Desired Product vs. Substrate (% area),Alcalase CLEA [2]; [8],100/0
Cbz-VVK(Boc)L-OtBu,Ratio Desired Product vs. Substrate (% area),Alcalase CLEA [2]; [8],100/0
Cbz-VVR(Pbf)L-OtBu,"Ratio endopeptidase Impurity vs. Desired Product (% area), impurity H-X-Leu-OH",Alcalase CLEA [2]; 24 h,1/99 (H-X-Leu-OH)
same,Ratio Desired Product vs. Substrate (% area),Alcalase CLEA [2]; [8],100/0
Cbz-VVRL-OtBu,Ratio Desired Product vs. Substrate (% area),Alcalase CLEA [2]; 6 h,100/0 ^1)
Cbz-VVVL-OtBu,Ratio Desired Product vs. Substrate (% area),Alcalase CLEA [2]; 6 h,100/0 ^1)
same,Ratio Desired Product vs. Substrate (% area),Alcalase CLEA [2]; [9],100/0 ^1)
same,Ratio Desired Product vs. Substrate (% area),Alcalase CLEA [2]; [8],100/0
Cbz-VVW(Boc)L-OtBu,Ratio Desired Product vs. Substrate (% area),Alcalase CLEA [2]; [10],3/97
same,Ratio Desired Product vs. Substrate (% area),Alcalase CLEA [2]; [8],100/0
Cbz-Val-Ala-OtBu,Product/Substrate (% area),[3],100/0
same,"Product vs. Substrate (% area), Subtilisin A",Subtilisin A [4],100/0
same,"Product vs. Substrate (% area), Alcalase CLEA",Alcalase CLEA [5],100/0
Cbz-Val-Asn-OtBu,"Product vs. Substrate (% area), Alcalase CLEA",Alcalase CLEA [5],100/0
Cbz-Val-Gln-OtBu,"Product vs. Substrate (% area), Subtilisin A",Subtilisin A [4],100/0
same,"Product vs. Substrate (% area), Alcalase CLEA",Alcalase CLEA [5],100/0
Cbz-Val-Ile-OtBu,"Product vs. Substrate (% area), Subtilisin A",Subtilisin A [4],0/100
same,"Product vs. Substrate (% area), Alcalase CLEA",Alcalase CLEA [5],traces of product
Cbz-Val-Leu-OtBu,"Product vs. Substrate (% area), Subtilisin A",Subtilisin A [4],100/0
same,"Product vs. Substrate (% area), Alcalase CLEA",Alcalase CLEA [5],98/2
same,Product vs. Substrate (% area),Subtilisin A [6]; 2.5 mg enzyme,100/0
same,Product vs. Substrate (% area),Subtilisin A [6]; 5 mg enzyme,100/0
Cbz-Val-Met-OtBu,"Product vs. Substrate (% area), Subtilisin A",Subtilisin A [4],100/0
Cbz-Val-Pro-OtBu,"Product vs. Substrate (% area), Subtilisin A",Subtilisin A [4],0/100
same,"Product vs. Substrate (% area), Alcalase CLEA",Alcalase CLEA [5],0/100
Cbz-Val-Ser-OtBu,"Product vs. Substrate (% area), Subtilisin A",Subtilisin A [4],100/0
Cbz-Val-Thr(tBu)-OtBu,"Product vs. Substrate (% area), Subtilisin A",Subtilisin A [4],0/100
same,"Product vs. Substrate (% area), Alcalase CLEA",Alcalase CLEA [5],0/100
Cbz-Val-Trp-Leu-OtBu,endopeptidase-related impurities in the final compound (HPLC and LC/MS),Alcalase CLEA [7],No endopeptidase-related impurities were identified
Cbz-Val-[His(Trt)]-OtBu,"Product vs. Substrate (% area), Subtilisin A",Subtilisin A [4],0/100
same,"Product vs. Substrate (% area), Alcalase CLEA",Alcalase CLEA [5],0/100
"Z-Val-Val-Ala-Leu-OBu^t ({code Z}-VVAL-OtBu; reading uncertain; also: printed as Z-Val-Val-Ala-Leu-OBu^t) [model tetrapeptide Z-Val-Val-X-Leu-OBu^t, X=Ala, tested in mix A]",Ratio Desired Product vs. Substrate (% area),Alcalase CLEA [2]; 6 h,100/0 ^1)
"Z-Val-Val-Asn-Leu-OBu^t ({code Z}-VVNL-OtBu; reading uncertain; also: printed as Z-Val-Val-Asn-Leu-OBu^t) [model tetrapeptide Z-Val-Val-X-Leu-OBu^t, X=Asn, tested in mix B]",Ratio Desired Product vs. Substrate (% area),Alcalase CLEA [2]; [10],100/0
same,Ratio Desired Product vs. Substrate (% area),Alcalase CLEA [2]; 6 h,100/0
same,Ratio Desired Product vs. Substrate (% area),Alcalase CLEA [2]; [9],100/0
same,Ratio Desired Product vs. Substrate (% area),Alcalase CLEA [2]; [8],100/0
"Z-Val-Val-Gln-Leu-OBu^t ({code Z}-VVQL-OtBu; reading uncertain; also: printed as Z-Val-Val-Gln-Leu-OBu^t) [model tetrapeptide Z-Val-Val-X-Leu-OBu^t, X=Gln, tested in mix A]",Ratio Desired Product vs. Substrate (% area),Alcalase CLEA [2]; 6 h,100/0 ^1)
"Z-Val-Val-Leu-Leu-OBu^t ({code Z}-VVLL-OtBu; reading uncertain; also: printed as Z-Val-Val-Leu-Leu-OBu^t) [model tetrapeptide Z-Val-Val-X-Leu-OBu^t, X=Leu, tested in mix A]",Ratio Desired Product vs. Substrate (% area),Alcalase CLEA [2]; 6 h,100/0 ^1)
Z-Val-Val-Met-Leu-OBu^t ({code Z}-VVML-OtBu; reading uncertain; also: printed as Z-Val-Val-Met-Leu-OBu^t),"Ratio endopeptidase Impurity vs. Desired Product (% area), impurity Z-Val-Val-X-OH",Alcalase CLEA [2]; 24 h,72/28 (Z-Val-Val-X-OH)
same,Ratio Desired Product vs. Substrate (% area),Alcalase CLEA [2]; [9],100/0
"Z-Val-Val-Phe-Leu-OBu^t ({code Z}-VVFL-OtBu; reading uncertain; also: printed as Z-Val-Val-Phe-Leu-OBu^t) [model tetrapeptide Z-Val-Val-X-Leu-OBu^t, X=Phe, tested in mix B]",Ratio Desired Product vs. Substrate (% area),Alcalase CLEA [2]; [10],23/77
same,Ratio Desired Product vs. Substrate (% area),Alcalase CLEA [2]; 6 h,81/19
same,Ratio Desired Product vs. Substrate (% area),Alcalase CLEA [2]; [8],100/0
"Z-Val-Val-Ser-Leu-OBu^t ({code Z}-VVSL-OtBu; reading uncertain; also: printed as Z-Val-Val-Ser-Leu-OBu^t) [model tetrapeptide Z-Val-Val-X-Leu-OBu^t, X=Ser, tested in mix A]",Ratio Desired Product vs. Substrate (% area),Alcalase CLEA [2]; 6 h,100/0 ^1)
"Z-Val-Val-Trp-Leu-OBu^t ({code Z}-VVWL-OtBu; reading uncertain; also: printed as Z-Val-Val-Trp-Leu-OBu^t) [model tetrapeptide Z-Val-Val-X-Leu-OBu^t, X=Trp, tested in mix D]","Ratio endopeptidase Impurity vs. Desired Product (% area), impurity H-X-Leu-OH",Alcalase CLEA [2]; 24 h,2/98 (H-X-Leu-OH)
same,"Ratio endopeptidase Impurity vs. Desired Product (% area), impurity H-X-Leu-OH",Alcalase CLEA [2]; 48 h,6/94 (H-X-Leu-OH)
"Z-Val-Val-Tyr-Leu-OBu^t ({code Z}-VVYL-OtBu; reading uncertain; also: printed as Z-Val-Val-Tyr-Leu-OBu^t) [model tetrapeptide Z-Val-Val-X-Leu-OBu^t, X=Tyr, tested in mix B]",Ratio Desired Product vs. Substrate (% area),Alcalase CLEA [2]; [8],100/0
